Assay [1] deals with S. aureus MSSA (ATCC 29213). Briefly: MIC susceptibility testing. The format is cell-based, Staphylococcus aureus. To be noted: Staphylococcus aureus, S. aureus ATCC 29213; read-out: (F) S. aureus (ATCC 29213) MIC.
The target in the next assay is T1, MetRS (T. brucei) (Trypanosoma brucei brucei, UniProt Q38C91).
T1 sequence (Q38C91 1-773): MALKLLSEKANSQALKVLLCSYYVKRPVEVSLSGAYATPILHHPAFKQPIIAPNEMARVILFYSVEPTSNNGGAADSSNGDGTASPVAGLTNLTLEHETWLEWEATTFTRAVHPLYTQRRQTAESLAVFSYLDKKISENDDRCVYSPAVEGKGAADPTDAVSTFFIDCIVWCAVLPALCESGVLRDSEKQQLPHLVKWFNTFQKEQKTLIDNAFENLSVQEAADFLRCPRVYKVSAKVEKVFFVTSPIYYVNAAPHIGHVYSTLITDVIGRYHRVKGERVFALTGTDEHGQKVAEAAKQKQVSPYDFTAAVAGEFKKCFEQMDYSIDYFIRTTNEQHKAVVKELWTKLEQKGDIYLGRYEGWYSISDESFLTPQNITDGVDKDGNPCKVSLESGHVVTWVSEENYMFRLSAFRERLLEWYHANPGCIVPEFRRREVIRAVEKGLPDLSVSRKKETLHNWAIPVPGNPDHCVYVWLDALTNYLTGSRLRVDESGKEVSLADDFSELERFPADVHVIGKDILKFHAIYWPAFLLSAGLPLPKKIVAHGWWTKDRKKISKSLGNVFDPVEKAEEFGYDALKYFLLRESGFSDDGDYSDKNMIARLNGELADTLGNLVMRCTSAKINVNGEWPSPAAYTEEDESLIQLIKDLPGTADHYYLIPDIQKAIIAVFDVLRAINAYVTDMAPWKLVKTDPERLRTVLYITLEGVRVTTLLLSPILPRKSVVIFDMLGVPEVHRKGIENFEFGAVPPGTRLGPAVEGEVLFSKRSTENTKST
Put plainly: MetRS (T. brucei) enzyme inhibition. The format is biochemical.

A further assay has as its target MetRS (C. parvum) (Cryptosporidium parvum, UniProt Q5CVN0). Put plainly: MetRS (C. parvum) enzyme inhibition. The assay is classed as biochemical.
Another assay deals with C. parvum. Put plainly: C. parvum growth inhibition. The format is cell-based, Cryptosporidium parvum. To be noted: read-out: (J) C. parvum EC50.
A further assay concerns T. cruzi. Briefly: T. cruzi growth inhibition. The assay is classed as cell-based, Trypanosoma cruzi. As to conditions: Trypanosoma cruzi; read-out: (E) T. cruzi EC50.
Another assay has as its system T. brucei. Briefly: T. brucei growth inhibition. The assay is classed as cell-based, Trypanosoma brucei. As to conditions: read-out: (D) T. brucei EC50.
The mark [2] stands for this setting: read-out: (C) MetRS (C. parvum) IC50.

In brackets after ≈: the same amount, converted by molar mass. Several values for one entry are separate records, joined by “and”; a condition that tells them apart may be missing. Equal entries are not always repeated. Where two headings read alike, the source gives them in different places.

MetRS (C. parvum), sequence (Q5CVN0 entry or part of it): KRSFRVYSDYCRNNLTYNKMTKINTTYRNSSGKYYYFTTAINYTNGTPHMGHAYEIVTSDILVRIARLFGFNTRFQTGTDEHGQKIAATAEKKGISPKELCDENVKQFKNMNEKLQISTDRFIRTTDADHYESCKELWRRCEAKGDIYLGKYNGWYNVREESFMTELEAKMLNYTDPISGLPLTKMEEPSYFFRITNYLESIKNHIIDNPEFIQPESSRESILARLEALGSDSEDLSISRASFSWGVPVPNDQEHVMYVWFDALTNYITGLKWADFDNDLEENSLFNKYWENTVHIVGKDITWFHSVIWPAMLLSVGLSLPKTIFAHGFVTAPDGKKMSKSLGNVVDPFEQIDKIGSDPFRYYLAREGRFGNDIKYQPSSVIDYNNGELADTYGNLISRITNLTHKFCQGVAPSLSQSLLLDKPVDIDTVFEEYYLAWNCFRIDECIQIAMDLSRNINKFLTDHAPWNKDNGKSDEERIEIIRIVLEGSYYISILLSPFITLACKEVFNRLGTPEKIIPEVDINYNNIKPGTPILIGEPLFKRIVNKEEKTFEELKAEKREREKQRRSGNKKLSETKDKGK

In the case of `O=c1n(Cc2nc3ccc(F)nc3[nH]2)cc(Cc2ccc(Cl)cc2Cl)n1C1CCCCC1` [Compound 2071, 3-cyclohexyl-4-[(2,4-dichlorophenyl)methyl]-1-({5-fluoro-1H-imidazo[4,5-b]pyridin-2-yl}methyl)-2,3-dihydro-1H-imidazol-2-one], the MIC in assay [1] was above 2.5 µg/mL. The half-maximal inhibitory concentration (IC50) against MetRS (T. brucei) and at MetRS (C. parvum) (setting [2]) was below 40 nM in each case. For the same molecule, the figures for the EC50 with C. parvum (Cryptosporidium parvum) and in the assay with T. cruzi were above 2000 nM and 526 nM, respectively.

For `C#CCn1c(Cc2ccc(Cl)cc2Cl)cn(Cc2nc3ccc(F)nc3[nH]2)c1=O` [Compound 2085, 4-[(2,4-dichlorophenyl)methyl]-1-({5-fluoro-1H-imidazo[4,5-b]pyridin-2-yl}methyl)-3-(prop-2-yn-1-yl)-2,3-dihydro-1H-imidazol-2-one], the minimal inhibitory concentration (MIC) in assay [1] turned out to be 1.71 µg/mL (≈ 3.97 µM). Further, the IC50 at MetRS (T. brucei) and on MetRS (C. parvum) (setting [2]) was below 40 nM in each case. The EC50 was found to be 834 nM in the assay on C. parvum (Cryptosporidium parvum); 683 nM with C. parvum; 4.56 nM in the assay on T. brucei (Trypanosoma brucei); 9.03 nM in the assay with T. brucei; 514 nM with T. cruzi.

For `Clc1ccc(Cc2cn(Cc3nc4cc(Cl)ccc4[nH]3)cn2)c(Cl)c1` [Compound 2192, 6-chlor0-2-({4-[(2,4-dichlorophenyl)-methyl]-1H-imidazol-1-yl}methyl)-1H-1,3-benzodiazole], the concentration for half-maximal inhibition (IC50) was below 40 nM against MetRS (T. brucei) and 114 nM on MetRS (C. parvum). Further, the figures for the EC50 in the assay on C. parvum (Cryptosporidium parvum), in the assay with T. brucei (Trypanosoma brucei) and with T. cruzi were above 2000 nM, 85.2 nM and 516 nM, respectively.

As for `COc1ccc(Cc2cn(Cc3nc4nc(Cl)ccc4[nH]3)c(=O)n2CC(C)(C)NC(C)=O)c(Cl)c1` [Compound 2209, N-{1-[3-({5-chloro-1H-imidazo[4,5-b]pyridin-2-yl}methyl)-5-[(2-chloro-4-methoxyphenyl)methyl]-2-oxo-2,3-dihydro-1H-imidazol-1-yl]-2-methylpropan-2-yl}acetamide], at MetRS (T. brucei), the IC50 is 380 nM and 781 nM. Further, the EC50 in the assay with C. parvum (Cryptosporidium parvum) was above 2000 nM; in the assay with T. cruzi, 4620 nM.

On to `O=C(O)Cn1c(C(=O)c2ccc(Cl)cc2Cl)cn(Cc2nc3ccc(Cl)nc3[nH]2)c1=O` [Compound 2216, 2-[3-({5-chloro-1H-imidazo[4,5-b]pyridin-2-yl}methyl)-5-(2,4-dichlorobenzoyl)-2-oxo-2,3-dihydro-1H-imidazol-1-yl]acetic acid], for which the IC50 is below 40 nM on MetRS (T. brucei) and 53.2 nM on MetRS (C. parvum) (setting [2]). Besides, the results for the concentration giving a half-maximal response (EC50) in the assay with C. parvum (Cryptosporidium parvum), in the assay with T. brucei (Trypanosoma brucei) and in the assay on T. cruzi were above 2000 nM, 287 nM and above 5000 nM, respectively.

With `COc1ccc(-c2cnn3c2CN(Cc2nc4nc(F)ccc4[nH]2)CC3)c(Cl)c1` [Compound 2170, 2-((3-(2-chloro-4-methoxyphenyl)-6,7-dihydropyrazolo[1,5-a]pyrazin-5(4H)-yl)methyl)-5-fluoro-1H-imidazo[4,5-b]pyridine], the IC50 against MetRS (T. brucei) and at MetRS (C. parvum) (setting [2]) was below 40 nM each time. For the same molecule, the 50% effective concentration (EC50) in the assay on C. parvum (Cryptosporidium parvum) was 1780 nM; in the assay with T. brucei (Trypanosoma brucei), 64.5 nM; with T. cruzi, 1330 nM.

On to `NCCn1c(Cc2ccc(Cl)cc2Cl)cn(Cc2nc3ccc(Cl)nc3[nH]2)c1=O` [Compound 2214, 3-(2-aminoethyl)-1-((5-chloro-3H-imidazo[4,5-b]pyridin-2-yl)methyl)-4-(2,4-dichlorobenzyl)-1,3-dihydro-2H-imidazol-2-one], for which the minimal inhibitory concentration (MIC) in assay [1] is above 2.5 µg/mL. Moreover, the results for the concentration for half-maximal inhibition (IC50) against MetRS (T. brucei) and on MetRS (C. parvum) (setting [2]) were below 40 nM and 74.5 nM, respectively. Also, the EC50 in the assay with C. parvum (Cryptosporidium parvum) is above 2000 nM; in the assay on T. brucei (Trypanosoma brucei) it was 3.73 nM; with T. cruzi it was 367 nM.

For `COc1ccc(-c2ccc(NC(C)=O)c3nc(Cc4nc5nc(F)ccc5[nH]4)cn23)c(Cl)c1` [Compound 2183, N-[5-(2-chloro-4-methoxyphenyl)-2-({5-fluoro-1H-imidazo[4,5-b]pyridin-2-yl}methyl)imidazo[1,2-a]pyridin-8-yl]acetamide], in assay [1], the MIC is 0.245 µg/mL (≈ 0.527 µM). The half-maximal inhibitory concentration (IC50) against MetRS (T. brucei) and on MetRS (C. parvum) (setting [2]) was below 40 nM throughout. The results for the EC50 in the assay on C. parvum (Cryptosporidium parvum) and with T. cruzi were 629 nM and 116 nM, respectively.

As usually defined, the MIC is the lowest concentration that inhibits growth of the organism. The term IC50 denotes the concentration that inhibits the measured activity by half. By EC50 is commonly meant the concentration giving half of the maximal effect.
